# Source: US20100009956A1, “NOVEL SUBSTITUTED PYRIMIDINES AS CYSTEINE PROTEASE INHIBITORS” (Glaxo Group Limited , a corporation, priority 2006, published 2010)
# Structures can show the parent of a compound that is named as a salt. Where two headings read alike, the source gives them in different places.
# What was measured:
# Type in all cases: biochemical
# Falcipain-2 = Falcipain-2 (Plasmodium falciparum, UniProt Q8I6U4); experiment: Falcipain-2 enzymatic assay (assay 1)
# Description: (§1) Assay 1) Determination of Falcipain-2, Falcipain-3, Vivapain-2, Cathepsin K Cathepsin S, Cathepsin L, and Cathepsin B Proteolytic Catalytic Activity
# (§2) Assays for Falcipain-2, Falcipain-3, and Vivapain-2 are carried out with parasitic recombinant enzymes. Cathepsins K, S, L, and B are carried out with human recombinant enzymes. Standard assay conditions for the determination of kinetic constants used a fluorogenic peptide substrate, typically H-D-VLR-AFC (Falcipain-2, Falcipain-3, Vivapain-2), Z-FR-AFC (Cathepsin K, L, B), or KQKLR-AMC (Cathepsin S) and are determined in 100 mM sodium acetate, pH 5.5, containing 10 mM DTT and 0.5 mM CHAPS (Falcipain-2, Falcipain-3, Vivapain-2), and 100 mM sodium acetate, pH 5.5, containing 5 mM L-cysteine, 1 mM CHAPS and 5 mM EDTA (Cathepsin K, L, B), or 50 mM MES, pH 6.5, containing 0.5 mM CHAPS, 10 mM L-CYS, 5 mM EDTA (Cathepsin S). Stock substrate solutions are prepared at 20 mM in DMSO. The activity assays contained 30 uM substrate (Falcipain-2, Falcipain-3, Vivapain-2), 20 uM substrate (Cathepsin K), 25 uM substrate (Cathepsin B), 5 uM substrate (Cathepsin L), and 30 uM substrate (Cathepsin S). All assays contained 1% DMSO. […] All assays are conducted at ambient temperature as end point assays being quenched after 60 minutes with the exception of Cathepsin S at 90 minutes, with 16.6 uM E-64 in 1% DMSO. Product formation (AFC or AMC) is determined from fluorescence (excitation at 405 nm; emission at 530 nm, AFC, or excitation at 360 nm; emission at 460 nm, AMC) monitored with a LJL Aquest (Molecular Devices) fluorescent plate reader. In the case of kinetic reads (used in mechanism of action studies), the reaction is not quenched but is read in the plate reader every 3 minutes for approximately 90 minutes. In addition, the mechanism of action studies for Falcipain-2 utilize Z-LR-AMC as the substrate. Product formation is determined from the fluorescence of AMC, measured with a LJL Acquest (Molecular Devices) fluorescent plate reader (excitation at 360 nm; emission at 460 nm).
# (§3) Potential inhibitors are evaluated using the quenched read (endpoint) method. Assays are carried out in the presence of variable concentrations of test compound. Reactions are initiated by addition of enzyme and substrate to wells containing inhibitor stamped in 100% DMSO. For endpoint assays, the reaction is quenched with the addition of E64. Dose response data is fit to an IC50 curve with preset fitting tools according to equation 1:
# (§4) y=a+(b−a)/(1+(10^x/10^c)^d) (1)
# (§5) where y is the response at a particular inhibitor concentration x, a is the minimum response value, b is the maximum response value, c is the IC50, and d is the slope of the IC50 curve. Assuming the compound is a competitive inhibitor, the apparent KI can be calculated from IC50, as shown in equation 2: […]
# Falcipain-3 = Falcipain-3 (Plasmodium falciparum, UniProt Q8IIL0); experiment: Falcipain-3 enzymatic assay (assay 1)
# Description: as §1, §2, §3, §4, §5
# Cathepsin S = Cathepsin S (Homo sapiens, UniProt P25774); experiment: Cathepsin S enzymatic assay (assay 1); conditions: human recombinant enzyme, KQKLR-AMC substrate, pH 6.5
# Description: as §1, §2, §3, §4, §5
# Cathepsin K = molecular target: T1, Cathepsin K (Homo sapiens, UniProt P43235); experiment: Cathepsin K enzymatic assay (assay 1); conditions: human recombinant enzyme, Z-FR-AFC substrate, pH 5.5
# T1 sequence (P43235 115-329): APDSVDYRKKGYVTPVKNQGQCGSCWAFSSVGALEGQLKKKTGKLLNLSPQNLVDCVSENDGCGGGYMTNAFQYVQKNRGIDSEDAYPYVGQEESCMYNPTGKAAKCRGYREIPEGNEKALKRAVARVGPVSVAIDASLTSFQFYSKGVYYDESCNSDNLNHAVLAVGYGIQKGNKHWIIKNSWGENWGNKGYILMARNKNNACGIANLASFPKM
# Description: as §1, §2, §3, §4, §5
# Sequence of Falcipain-3 (Q8IIL0 243-492): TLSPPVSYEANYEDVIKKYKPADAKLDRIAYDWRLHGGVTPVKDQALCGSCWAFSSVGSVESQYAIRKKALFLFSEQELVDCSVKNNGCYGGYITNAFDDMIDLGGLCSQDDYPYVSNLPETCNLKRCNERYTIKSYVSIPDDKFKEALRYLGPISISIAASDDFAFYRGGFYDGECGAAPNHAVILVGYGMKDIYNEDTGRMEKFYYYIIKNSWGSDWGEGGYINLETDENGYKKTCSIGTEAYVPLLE
# Sequence of Falcipain-2 (Q8I6U4 244-484): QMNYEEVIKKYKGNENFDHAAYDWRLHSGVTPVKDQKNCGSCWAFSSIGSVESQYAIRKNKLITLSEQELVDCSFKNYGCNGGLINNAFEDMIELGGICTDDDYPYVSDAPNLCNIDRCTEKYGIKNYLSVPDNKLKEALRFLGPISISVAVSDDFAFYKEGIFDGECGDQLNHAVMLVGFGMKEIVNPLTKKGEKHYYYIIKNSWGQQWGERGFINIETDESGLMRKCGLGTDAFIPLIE
# Sequence of Cathepsin S (P25774 115-331): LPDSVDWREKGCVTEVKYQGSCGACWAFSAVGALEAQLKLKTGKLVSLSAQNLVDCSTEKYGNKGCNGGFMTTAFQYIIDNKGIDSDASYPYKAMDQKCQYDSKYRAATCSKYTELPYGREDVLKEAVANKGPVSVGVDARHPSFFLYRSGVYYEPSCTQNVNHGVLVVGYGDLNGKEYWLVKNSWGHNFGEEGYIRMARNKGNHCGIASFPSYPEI
Compound,IC50 (Falcipain-2) [nM],IC50 (Falcipain-3) [nM],IC50 (Cathepsin S) [nM],"IC50 (Falcipain-2; parasitic recombinant enzyme, H-D-VLR-AFC substrate, pH 5.5, endpoint read, read-out: Falcipain-2 IC50) [nM]",IC50 (Cathepsin K) [nM],"IC50 (Falcipain-3; parasitic recombinant enzyme, H-D-VLR-AFC substrate, pH 5.5, endpoint read, read-out: Falcipain-3 IC50) [nM]"
"CN1CCC(CN2CCN(Cc3cccc(C(=O)NN(c4nc(C#N)ncc4Br)C4CCCCC4)c3)CC2)CC1 [Example 28, N′-(5-bromo-2-cyano-4-pyrimidinyl)-N′-cyclohexyl-3-({4-[(1-methyl-4-piperidinyl)methyl]-1-piperazinyl}methyl)benzohydrazide trifluoroacetate]",< 1,2.5 to 15,< 1000,–,–,–
"CN1CCN(C(=O)C2CCN(Cc3ccc(C(=O)NN(c4nc(C#N)ncc4Cl)C4CCOCC4)cc3)CC2)CC1 [Example 36, N′-(5-Chloro-2-cyano-4-pyrimidinyl)-4-({4-[(4-methyl-1-piperazinyl)carbonyl]-1-piperidinyl}methyl)-N′-(tetrahydro-2H-pyran-4-yl)benzohydrazide trifluoroacetate]",–,15 to 150,–,< 1,< 17,–
"CC(=O)N1CCC(N(NC(=O)c2ccc(CN3CCC(N4CCN(C)CC4)CC3)cc2)c2nc(C#N)ncc2Br)CC1 [Example 38, N′-(1-acetyl-4-piperidinyl)-N′-(5-bromo-2-cyano-4-pyrimidinyl)-4-{[4-(4-methyl-1-piperazinyl)-1-piperidinyl]methyl}benzohydrazide trifluoroacetate]",< 1,–,< 200,–,–,2.5 to 15
"CN1CCN(c2ccc(C(=O)NN(c3nc(C#N)ncc3Cl)C3CCCC3)cc2)CC1 [Example 52, N′-(5-chloro-2-cyano-4-pyrimidinyl)-N′-cyclopentyl-4-(4-methyl-1-piperazinyl)benzohydrazide trifluoroacetate]",< 1,2.5 to 15,< 200,–,–,–
"CN(Cc1ccc(C(=O)NN(c2nc(C#N)ncc2Cl)C2CCCC2)cc1)C1CCCCC1 [Example 53, N′-(5-chloro-2-cyano-4-pyrimidinyl)-4-{[cyclohexyl(methyl)amino]methyl}-N′-cyclopentylbenzohydrazide trifluoroacetate]",< 1,2.5 to 15,< 200,–,–,–
"CN(C)Cc1ccc(C(=O)NN(c2nc(C#N)ncc2Cl)C2CCCC2)cc1 [Example 54, N′-(5-chloro-2-cyano-4-pyrimidinyl)-N′-cyclopentyl-4-[(dimethylamino)methyl]benzohydrazide trifluoroacetate]",< 1,2.5 to 15,< 200,–,–,–
"CCCN(C)Cc1ccc(C(=O)NN(c2nc(C#N)ncc2Cl)C2CCCC2)cc1 [Example 55, N′-(5-chloro-2-cyano-4-pyrimidinyl)-N′-cyclopentyl-4-{[methyl(propyl)amino]methyl}benzohydrazide trifluoroacetate]",< 1,2.5 to 15,< 200,–,–,–
"CCCCCCN(C)Cc1ccc(C(=O)NN(c2nc(C#N)ncc2Cl)C2CCCC2)cc1 [Example 56, N′-(5-chloro-2-cyano-4-pyrimidinyl)-N′-cyclopentyl-4-{([hexyl(methyl)amino]methyl}benzohydrazide trifluoroacetate]",< 1,2.5 to 15,< 200,–,–,–
"CCCCN(C)Cc1ccc(C(=O)NN(c2nc(C#N)ncc2Cl)C2CCCC2)cc1 [Example 57, 4-{[butyl(methyl)amino]methyl}-N′-(5-chloro-2-cyano-4-pyrimidinyl)-N′-cyclopentylbenzohydrazide trifluoroacetate]",< 1,2.5 to 15,< 200,–,–,–
"CN(CCC(O)c1ccccc1)Cc1ccc(C(=O)NN(c2nc(C#N)ncc2Cl)C2CCCC2)cc1 (stereo not drawn) [Example 59, N′-(5-chloro-2-cyano-4-pyrimidinyl)-N′-cyclopentyl-4-{[(3-hydroxy-3-phenylpropyl)(methyl)amino]methyl}benzohydrazide trifluoroacetate]",< 1,1 to 2.5,< 200,–,–,–
"CN(CC(=O)N(C)C)Cc1ccc(C(=O)NN(c2nc(C#N)ncc2Cl)C2CCCC2)cc1 [Example 60, N^2-[(4-{[2-(5-chloro-2-cyano-4-pyrimidinyl)-2-cyclopentylhydrazino]carbonyl}phenyl)methyl]-N^1,N^1,N^2-trimethylglycinamide trifluoroacetate]",< 1,2.5 to 15,< 200,–,–,–
"CN(CCC1OCCO1)Cc1ccc(C(=O)NN(c2nc(C#N)ncc2Cl)C2CCCC2)cc1 [Example 61, N′-(5-chloro-2-cyano-4-pyrimidinyl)-N′-cyclopentyl-4-{[[2-(1,3-dioxolan-2-yl)ethyl](methyl)amino]methyl}benzohydrazide trifluoroacetate]",< 1,2.5 to 15,< 200,–,–,–
"CN(CCc1ccccc1)Cc1ccc(C(=O)NN(c2nc(C#N)ncc2Cl)C2CCCC2)cc1 [Example 62, N′-(5-chloro-2-cyano-4-pyrimidinyl)-N′-cyclopentyl-4-{[methyl(2-phenylethyl)amino]methyl}benzohydrazide trifluoroacetate]",< 1,2.5 to 15,< 200,–,–,–
"CN(CCCc1ccccc1)Cc1ccc(C(=O)NN(c2nc(C#N)ncc2Cl)C2CCCC2)cc1 [Example 64, N′-(5-chloro-2-cyano-4-pyrimidinyl)-N′-cyclopentyl-4-{[methyl(3-phenylpropyl)amino]methyl}benzohydrazide trifluoroacetate]",< 1,2.5 to 15,< 200,–,–,–
"CN(Cc1ccc(C(=O)NN(c2nc(C#N)ncc2Cl)C2CCCC2)cc1)C1CCC2(CC1)OCC(C)(C)CO2 [Example 65, N′-(5-chloro-2-cyano-4-pyrimidinyl)-N′-cyclopentyl-4-{[(3,3-dimethyl-1,5-dioxaspiro[5.5]undec-9-yl)(methyl)amino]methyl}benzohydrazide trifluoroacetate]",1 to 2.5,2.5 to 15,< 200,–,–,–
"CCN(CC)Cc1ccc(C(=O)NN(c2nc(C#N)ncc2Cl)C2CCCC2)cc1 [Example 66, N′-(5-chloro-2-cyano-4-pyrimidinyl)-N′-cyclopentyl-4-[(diethylamino)methyl]benzohydrazide trifluoroacetate]",< 1,2.5 to 15,< 200,–,–,–
"CCN(Cc1ccc(C(=O)NN(c2nc(C#N)ncc2Cl)C2CCCC2)cc1)C1CCCCC1 [Example 69, N′-(5-chloro-2-cyano-4-pyrimidinyl)-4{[cyclohexyl(ethyl)amino]methyl}-N′-cyclopentylbenzohydrazide trifluoroacetate]",< 1,2.5 to 15,< 200,–,–,–
"N#Cc1ncc(Cl)c(N(NC(=O)c2ccc(CN3CCC(O)CC3)cc2)C2CCCC2)n1 [Example 70, N′-(5-chloro-2-cyano-4-pyrimidinyl)-N′-cyclopentyl-4-[(4-hydroxy-1-piperidinyl)methyl]benzohydrazide trifluoroacetate]",< 1,2.5 to 15,< 200,–,–,–
"CN(Cc1ccc(C(=O)NN(c2nc(C#N)ncc2Cl)C2CCCC2)cc1)C(C)(C)Cc1ccccc1 [Example 71, N′-(5-chloro-2-cyano-4-pyrimidinyl)-N′-cyclopentyl-4-{[(1,1-dimethyl-2-phenylethyl)(methyl)amino]methyl}benzohydrazide trifluoroacetate]",< 1,2.5 to 15,< 200,–,–,–
"CC(C)N(Cc1ccc(C(=O)NN(c2nc(C#N)ncc2Cl)C2CCCC2)cc1)C(C)C [Example 72, 4-{[bis(1-methylethyl)amino]methyl}-N′-(5-chloro-2-cyano-4-pyrimidinyl)-N′-cyclopentylbenzohydrazide trifluoroacetate]",< 1,2.5 to 15,< 200,–,–,–
